Data reported in ChEMBL document CHEMBL1131859, “Conformationally restricted paclitaxel analogues: macrocyclic mimics of the "hydrophobic collapse" conformation” (1999).
Calls of active or inactive are those of the source. The calls are words filed in the database; no cut-off is given here.

Legend:
[1] = Inhibitory activity against microtubule assembly stimulated by paclitaxel (1 uM) at a concentration of 20 uM of the compound; No inhibition; assay type: functional
B16 [2] = experiment: Tested for cytotoxicity against B16 melanoma cells expressed as the ED50 to that of ED50 of paclitaxel; In active; assay type: functional, cell-based; details: Mus musculus
[3] = Tested for activity using microtubule assembly assay expressed as the ED50 to that of ED50 of paclitaxel; In active; assay type: functional
B16 [4] = experiment: Tested for cytotoxicity against B16 melanoma cells expressed as the ED50 to that of ED50 of paclitaxel.; assay type: functional, Mus musculus
[5] = Tested for activity using microtubule assembly assay expressed as the ED50 to that of ED50 of paclitaxel.; assay type: functional

SMILES: CC(=O)O[C@H]1C(=O)[C@@]2(C)[C@H]([C@@H]3OC(=O)c4cccc(c4)/C=C\c4ccccc4[C@H](NC(=O)c4ccccc4)[C@@H](O)C(=O)OC4C[C@]3(O)C(C)(C)C1=C4C)[C@]1(OC(C)=O)CO[C@@H]1C[C@@H]2O
- Ratio [1]: inactive

SMILES: CC(=O)O[C@H]1C(=O)[C@@]2(C)[C@H]([C@H](OC(=O)c3ccccc3)[C@]3(O)CC(OC(=O)/C=C(\NC(=O)c4ccccc4)c4cccc(I)c4)C(C)=C1C3(C)C)[C@]1(OC(C)=O)CO[C@@H]1C[C@@H]2O (stereo not given in full)
- Ratio (B16 [2]): inactive
- Ratio [3]: inactive

SMILES: CC(=O)O[C@H]1C(=O)[C@@]2(C)[C@H]([C@H](OC(=O)c3ccccc3)[C@]3(O)CC(OC(=O)[C@H](O[Si](C)(C)C(C)(C)C)[C@@H](NC(=O)c4ccccc4)c4cccc(I)c4)C(C)=C1C3(C)C)[C@]1(OC(C)=O)CO[C@@H]1C[C@@H]2O (stereo not given in full)
- Ratio (B16 [4]): 27
- Ratio [5]: 4.6
